The text below walks through data of patent US12391676B2 (H. LEE MOFFITT CANCER CENTER AND RESEARCH INSTITUTE, INC., priority 2018, dated 2025).

In one assay the target is BRD4 (Homo sapiens (Human), UniProt O60885). The assay is described as follows: BRD4 DSF thermal shift (ΔTm). Format: binding. The settings on record: for BRD4 DSF (ΔTm): Table 2; for DSF ΔTm: Table 1.
For a further assay, the system named is UKE1 cells. In words: Growth inhibition GI50, UKE1 cells. Format: cell-based.
The subject of a further assay is MM1.S cells. In words: Antiproliferative activity, MM1.S cells. Format: cell-based. The settings on record: Homo sapiens; for GI50: Table 2, read-out: GI50 (MM1S); for IC50: Table 1 comments. On the procedure:
Cellular activity of promising compounds is assessed using MM.1S and MV4-11 AML cells using c-Myc levels as biomarker (6-12 hr treatment) and antiproliferative activity (48-72 hr treatment) as described (Ciceri et al., Dual kinase-bromodomain inhibitors for rationally designed polypharmacology. Nat Chem Biol 2014).

The mark [1] stands for this setting: UKE1, Table 2, read-out: GI50 (UKE1).

Read-outs that look alike come from different tables or passages of the source.

The term GI50 denotes the concentration giving 50% growth inhibition. Consider `Cc1cnc(Nc2ccc(N3CCN(C)CC3)c(F)c2)cc1Nc1cccc(S(=O)(=O)NC(C)(C)C)c1` [MA9-024, N-(Tert-butyl)-3-((2-((3-fluoro-4-(4-methylpiperazin-1-yl)phenyl)amino)-5-methylpyridin-4-yl)amino)benzenesulfonamide], for which the “BRD4 DSF (ΔTm)” value on BRD4 came to 4.1 °C. Further, the GI50 was greater than 24 µM in the assay on UKE1 cells (setting [1]) and 4.79 µM in the assay on MM1.S cells. For `Cc1cnc(Nc2ccc(OCCN3CCCC3)cc2)nc1Nc1ccc2c(c1)N(S(=O)(=O)C(C)(C)C)CC2` [MA11-006, N4-(1-(tert-butylsulfonyl)indolin-6-yl)-5-methyl-N2-(4-(2-(pyrrolidin-1-yl)ethoxy)phenyl)pyrimidine-2,4-diamine], in that order: 11.0 °C, 0.502 µM and 0.499 µM. For `Cc1cnc(Nc2ccc(OCCN3CCCC3)c(F)c2)nc1Nc1ccc2c(c1)N(S(=O)(=O)C(C)(C)C)CC2` [MA11-007, N4-(1-(tert-butylsulfonyl)indolin-6-yl)-N2-(3-fluoro-4-(2-(pyrrolidin-1-yl)ethoxy)phenyl)-5-methylpyrimidine-2,4-diamine], in that order: 13.7 °C, 0.26 µM and 0.135 µM.

For `Cc1cnc(Nc2cc(F)c(C3CCN(C)CC3)c(F)c2)nc1Nc1ccc2ccn(S(=O)(=O)C(C)(C)C)c2n1` [MA11-012, N4-(1-(tert-butylsulfonyl)-1H-pyrrolo[2,3-b]pyridin-6-yl)-N2-(3,5-difluoro-4-(1-methylpiperidin-4-yl)phenyl)-5-methylpyrimidine-2,4-diamine], the “BRD4 DSF (ΔTm)” value on BRD4 worked out at 3.9 °C. For the same compound, the GI50 with UKE1 cells (setting [1]) stood at 0.58 µM.

On to `Cc1cnc(Nc2ccc(C3CCN(C)CC3)c(F)c2)nc1Nc1cnc(Cl)c(NS(=O)(=O)C(C)(C)C)c1` [MA11-016, N-(2-chloro-5-((2-((3-fluoro-4-(1-methylpiperidin-4-yl)phenyl)amino)-5-methylpyrimidin-4-yl)amino)pyridin-3-yl)-2-methylpropane-2-sulfonamide], for which the “BRD4 DSF (ΔTm)” value at BRD4 came out at 14.8 °C. Besides, the GI50 with UKE1 cells (setting [1]) was 0.11 µM. Turning to `Cc1cnc(Nc2cc(F)c(C3CCN(C)CC3)c(F)c2)nc1Nc1cnc(Cl)c(NS(=O)(=O)C(C)(C)C)c1` [MA11-017, N-(2-chloro-5-((2-((3,5-difluoro-4-(1-methylpiperidin-4-yl)phenyl)amino)-5-methylpyrimidin-4-yl)amino)pyridin-3-yl)-2-methylpropane-2-sulfonamide], on BRD4, the “BRD4 DSF (ΔTm)” value was determined as 14.3 °C. In addition, in the assay with UKE1 cells (setting [1]), the GI50 was 0.102 µM.

Regarding `Cc1cnc(Nc2ccc(C3CCN(C)CC3)c(F)c2)nc1Nc1cccc(NS(=O)(=O)C(C)(C)C)n1` [MA11-032, N-(6-((2-((3-fluoro-4-(1-methylpiperidin-4-yl)phenyl)amino)-5-methylpyrimidin-4-yl)amino)pyridin-2-yl)-2-methylpropane-2-sulfonamide], in the assay with UKE1 cells (setting [1]), the GI50 was determined as 0.385 µM. For the compound `Cc1cnc(Nc2cc(F)c(C3CCN(C)CC3)c(F)c2)nc1Nc1cccc(NS(=O)(=O)C(C)(C)C)n1` [MA11-035, N-(6-((2-((3,5-difluoro-4-(1-methylpiperidin-4-yl)phenyl)amino)-5-methylpyrimidin-4-yl)amino)pyridin-2-yl)-2-methylpropane-2-sulfonamide], the “BRD4 DSF (ΔTm)” value at BRD4 was 5.1 °C. The GI50 in the assay on UKE1 cells (setting [1]) was found to be 0.761 µM. Consider `Cc1cnc(Nc2cc(F)c(C3CCN(C)CC3)cn2)nc1Nc1cccc(NS(=O)(=O)C(C)(C)C)n1` [MA11-038, N-(6-((2-((4-fluoro-5-(1-methylpiperidin-4-yl)pyridin-2-yl)amino)-5-methylpyrimidin-4-yl)amino)pyridin-2-yl)-2-methylpropane-2-sulfonamide], for which the GI50 in the assay on UKE1 cells (setting [1]) amounted to 5.6 µM. With `Cc1cnc(Nc2cc(F)c(C3CCN(C)CC3)cn2)nc1Nc1ccc(Cl)c(NS(=O)(=O)C(C)(C)C)c1` [PN1-064, N-(2-Chloro-5-((2-((4-fluoro-5-(1-methylpiperidin-4-yl)pyridin-2-yl)amino)-5-methylpyrimidin-4-yl)amino)phenyl)-2-methylpropane-2-sulfonamide], the “BRD4 DSF (ΔTm)” value on BRD4 amounted to 13.6 °C. For the same compound, the GI50 with UKE1 cells (setting [1]) worked out at 0.054 µM; in the assay on MM1.S cells it was 0.043 µM. With `Cc1cnc(Nc2cc(F)c(C3CCN(C)CC3)c(F)c2)nc1Nc1ccc(Cl)c(NS(=O)(=O)C(C)(C)C)c1` [PN2-122, N-(2-Chloro-5-((2-((3,5-difluoro-4-(1-methylpiperidin-4-yl)phenyl)amino)-5-methylpyrimidin-4-yl)amino)phenyl)-2-methylpropane-2-sulfonamide], the “BRD4 DSF (ΔTm)” value on BRD4 was 15.2 °C. Moreover, the concentration for 50% growth inhibition (GI50) in the assay with MM1.S cells is 0.093 µM. On the same counts, the results for `Cc1cnc(Nc2cc(F)c(C3CCN(C)CC3)c(F)c2)nc1Nc1ccc(F)c(NS(=O)(=O)C(C)(C)C)c1` [PN2-123, N-(5-((2-((3,5-Difluoro-4-(1-methylpiperidin-4-yl)phenyl)amino)-5-methylpyrimidin-4-yl)amino)-2-fluorophenyl)-2-methylpropane-2-sulfonamide] are 14.7 °C and 0.081 µM.

Turning to `Cc1cnc(Nc2cc(F)c(C3CCN(C)CC3)c(F)c2)nc1Nc1cccc(NS(=O)(=O)C(C)(C)C)c1` [PN2-124, N-(3-((2-((3,5-Difluoro-4-(1-methylpiperidin-4-yl)phenyl)amino)-5-methylpyrimidin-4-yl)amino)phenyl)-2-methylpropane-2-sulfonamide], the “BRD4 DSF (ΔTm)” value at BRD4 stood at 13.4 °C. In addition, the GI50 in the assay with MM1.S cells came to 0.08 µM.

On to `Cc1ccc(Nc2nc(Nc3ccc(C4CCN(C)CC4)c(F)c3)ncc2C)cc1NS(=O)(=O)C(C)(C)C` [PN2-173, N-(5-((2-((3-Fluoro-4-(1-methylpiperidin-4-yl)phenyl)amino)-5-methylpyrimidin-4-yl)amino)-2-methylphenyl)-2-methylpropane-2-sulfonamide], for which the “BRD4 DSF (ΔTm)” value on BRD4 was determined as 12.3 °C. For the same compound, the 50% growth inhibitory concentration (GI50) in the assay on UKE1 cells (setting [1]) is 0.463 µM. For `Cc1ccc(Nc2nc(Nc3cc(F)c(C4CCN(C)CC4)c(F)c3)ncc2C)cc1NS(=O)(=O)C(C)(C)C` [PN2-174, N-(5-((2-((3,5-Difluoro-4-(1-methylpiperidin-4-yl)phenyl)amino)-5-methylpyrimidin-4-yl)amino)-2-methylphenyl)-2-methylpropane-2-sulfonamide], in that order: 13.3 °C and 0.194 µM.

For `Cc1ccc(Nc2nc(Nc3cc(F)c(C4CCN(C)CC4)cn3)ncc2C)cc1NS(=O)(=O)C(C)(C)C` [PN2-175, N-(5-((2-((4-Fluoro-5-(1-methylpiperidin-4-yl)pyridin-2-yl)amino)-5-methylpyrimidin-4-yl)amino)-2-methylphenyl)-2-methylpropane-2-sulfonamide], the “BRD4 DSF (ΔTm)” value at BRD4 came to 12.6 °C. The concentration for 50% growth inhibition (GI50) in the assay with UKE1 cells (setting [1]) was found to be 0.22 µM. Turning to `Cc1cnc(Nc2ccc(C3CCN(C)CC3)c(F)c2)nc1Nc1cc(F)cc(NS(=O)(=O)C(C)(C)C)c1` [PN3-052, N-(3-Fluoro-5-((2-((3-fluoro-4-(1-methylpiperidin-4-yl)phenyl)amino)-5-methylpyrimidin-4-yl)amino)phenyl)-2-methylpropane-2-sulfonamide], the GI50 with UKE1 cells (setting [1]) is 0.27 µM. The same measure, in the same setting: for `Cc1cnc(Nc2cc(F)c(C3CCN(C)CC3)c(F)c2)nc1Nc1cc(F)cc(NS(=O)(=O)C(C)(C)C)c1` [PN3-053, N-(3-((2-((3,5-Difluoro-4-(1-methylpiperidin-4-yl)phenyl)amino)-5-methylpyrimidin-4-yl)amino)-5-fluorophenyl)-2-methylpropane-2-sulfonamide] the value was 0.185 µM; for `Cc1cnc(Nc2cc(F)c(C3CCN(C)CC3)cn2)nc1Nc1cc(F)cc(NS(=O)(=O)C(C)(C)C)c1` [PN3-054, N-(3-Fluoro-5-((2-((4-fluoro-5-(1-methylpiperidin-4-yl)pyridin-2-yl)amino)-5-methylpyrimidin-4-yl)amino)phenyl)-2-methylpropane-2-sulfonamide], 0.449 µM. The same measure, in the same setting: the result for `Cc1cnc(Nc2cc(F)c(C3CCN(C)CC3)cn2)nc1Nc1cc(Cl)cc(NS(=O)(=O)C(C)(C)C)c1` [PN3-074, N-(3-Chloro-5-((2-((4-fluoro-5-(1-methylpiperidin-4-yl)pyridin-2-yl)amino)-5-methylpyrimidin-4-yl)amino)phenyl)-2-methylpropane-2-sulfonamide] reads 0.937 µM; that for `Cc1cnc(Nc2cc(F)c(C3CCN(C)CC3)c(F)c2)nc1Nc1cc(Cl)cc(NS(=O)(=O)C(C)(C)C)c1` [PN3-075, N-(3-Chloro-5-((2-((3,5-difluoro-4-(1-methylpiperidin-4-yl)phenyl)amino)-5-methylpyrimidin-4-yl)amino)phenyl)-2-methylpropane-2-sulfonamide], 0.556 µM. As to `Cc1cnc(Nc2ccc(C3CCN(C)CC3)c(F)c2)nc1Nc1cc(Cl)cc(NS(=O)(=O)C(C)(C)C)c1` [PN3-076, N-(3-Chloro-5-((2-((3-fluoro-4-(1-methylpiperidin-4-yl)phenyl)amino)-5-methylpyrimidin-4-yl)amino)phenyl)-2-methylpropane-2-sulfonamide], the GI50 in the assay with UKE1 cells (setting [1]) was found to be 1.1 µM. In the case of `Cc1cnc(Nc2ccc(C3CCN(C)CC3)c(F)c2)cc1Nc1cccc(NS(=O)(=O)C(C)(C)C)c1` [SY3-039, N-(3-((2-((3-Fluoro-4-(1-methylpiperidin-4-yl)phenyl)amino)-5-methylpyridin-4-yl)amino)phenyl)-2-methylpropane-2-sulfonamide], the “BRD4 DSF (ΔTm)” value at BRD4 came out at 6.7 °C. Moreover, in the assay with MM1.S cells, the GI50 was found to be 1.6 µM. As a reminder, the IC50 is the point on the concentration scale where inhibition reaches its midpoint. Consider `Cc1cnc(Nc2cc(F)cc(N3CCN(C)CC3)c2)nc1Nc1ccc(Cl)c(NS(=O)(=O)C(C)(C)C)c1` [drawing 10], for which the “DSF ΔTm” value on BRD4 is 11.1 °C. In addition, the IC50 in the assay with MM1.S cells turned out to be 0.16 µM. With `Cc1cnc(Nc2ccc(C3CCN(C)CC3)c(F)c2)nc1Nc1cccc(NS(=O)(=O)C(C)(C)C)c1` [drawing 13], the “DSF ΔTm” value on BRD4 turned out to be 12.3 °C. Besides, the 50% growth inhibitory concentration (GI50) with UKE1 cells (UKE1, Table 1 comments, read-out: GI50 (UKE1 cells)) amounted to 0.11 µM.

In the case of `Cc1cnc(Nc2cc(F)cc(N3CCN(C)CC3)c2)nc1Nc1cccc(NS(=O)(=O)C(C)(C)C)c1` [drawing 14], the “DSF ΔTm” value on BRD4 was 11.1 °C. In the assay with MM1.S cells, this compound showed an IC50 of 0.22 µM.
